Type in all cases: cell-based
One test has as its target T1, WEE1 (Homo sapiens, UniProt P30291+Q96SW2).
T1 construct: effects of the compounds of the present disclosure on the expression of target proteins in cells; endogenous in cells; host or cells: human PBMCs (hPBMCs)
The test is described as follows: Western-blot assay, substrate protein degradation in hPBMCs: WEE1. The following applies: for WEE1 substrate protein remaining %: compounds at 50 nM and 500 nM, 24 hours; for substrate protein remaining % WEE1: 24 hours of compound treatment, 50 nM and 500 nM.

The next test has as its target T2, IKZF1 (Homo sapiens, UniProt Q13422+Q96SW2).
T2 construct: effects of the compounds of the present disclosure on the expression of target proteins in cells; endogenous in cells; host or cells: human PBMCs (hPBMCs)
The test is described as follows: Western-blot assay, substrate protein degradation in hPBMCs: IKZF1. The following applies: for IKZF1 substrate protein remaining %: compounds at 50 nM and 500 nM, 24 hours; for substrate protein remaining % IKZF1: 24 hours of compound treatment, 50 nM and 500 nM.

In the next test the target is T3, IKZF2 (Homo sapiens, UniProt Q96SW2+Q9UKS7).
T3 construct: effects of the compounds of the present disclosure on the expression of target proteins in cells; endogenous in cells; host or cells: human PBMCs (hPBMCs)
T3 sequence (Q9UKS7 whole entry): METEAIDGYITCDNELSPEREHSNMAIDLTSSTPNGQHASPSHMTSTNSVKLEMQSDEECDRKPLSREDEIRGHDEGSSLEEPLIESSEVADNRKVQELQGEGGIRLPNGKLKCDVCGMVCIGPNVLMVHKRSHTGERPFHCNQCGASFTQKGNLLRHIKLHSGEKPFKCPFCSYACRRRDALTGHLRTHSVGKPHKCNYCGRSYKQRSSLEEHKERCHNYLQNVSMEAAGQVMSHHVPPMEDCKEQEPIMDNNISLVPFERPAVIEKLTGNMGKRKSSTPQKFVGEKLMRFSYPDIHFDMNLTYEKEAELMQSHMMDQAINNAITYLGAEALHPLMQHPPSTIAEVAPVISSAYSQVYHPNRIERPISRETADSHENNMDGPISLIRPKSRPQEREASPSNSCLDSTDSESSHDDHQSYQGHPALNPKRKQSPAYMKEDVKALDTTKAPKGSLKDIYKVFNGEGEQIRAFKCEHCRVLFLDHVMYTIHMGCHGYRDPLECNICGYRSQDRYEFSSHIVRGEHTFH
T3 sequence (Q96SW2 whole entry): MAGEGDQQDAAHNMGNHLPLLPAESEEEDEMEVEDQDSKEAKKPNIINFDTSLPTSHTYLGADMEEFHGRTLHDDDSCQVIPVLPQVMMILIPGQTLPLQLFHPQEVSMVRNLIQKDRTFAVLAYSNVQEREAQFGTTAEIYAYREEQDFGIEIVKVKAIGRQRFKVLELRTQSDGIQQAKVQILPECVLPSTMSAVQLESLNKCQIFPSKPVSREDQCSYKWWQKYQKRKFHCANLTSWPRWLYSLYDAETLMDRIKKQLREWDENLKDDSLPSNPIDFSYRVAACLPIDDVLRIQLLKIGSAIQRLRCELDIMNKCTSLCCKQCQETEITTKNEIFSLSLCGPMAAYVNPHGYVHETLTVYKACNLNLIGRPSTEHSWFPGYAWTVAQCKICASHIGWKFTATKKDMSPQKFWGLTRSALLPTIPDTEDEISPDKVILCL
T3 sequence (Q16531 whole entry partner): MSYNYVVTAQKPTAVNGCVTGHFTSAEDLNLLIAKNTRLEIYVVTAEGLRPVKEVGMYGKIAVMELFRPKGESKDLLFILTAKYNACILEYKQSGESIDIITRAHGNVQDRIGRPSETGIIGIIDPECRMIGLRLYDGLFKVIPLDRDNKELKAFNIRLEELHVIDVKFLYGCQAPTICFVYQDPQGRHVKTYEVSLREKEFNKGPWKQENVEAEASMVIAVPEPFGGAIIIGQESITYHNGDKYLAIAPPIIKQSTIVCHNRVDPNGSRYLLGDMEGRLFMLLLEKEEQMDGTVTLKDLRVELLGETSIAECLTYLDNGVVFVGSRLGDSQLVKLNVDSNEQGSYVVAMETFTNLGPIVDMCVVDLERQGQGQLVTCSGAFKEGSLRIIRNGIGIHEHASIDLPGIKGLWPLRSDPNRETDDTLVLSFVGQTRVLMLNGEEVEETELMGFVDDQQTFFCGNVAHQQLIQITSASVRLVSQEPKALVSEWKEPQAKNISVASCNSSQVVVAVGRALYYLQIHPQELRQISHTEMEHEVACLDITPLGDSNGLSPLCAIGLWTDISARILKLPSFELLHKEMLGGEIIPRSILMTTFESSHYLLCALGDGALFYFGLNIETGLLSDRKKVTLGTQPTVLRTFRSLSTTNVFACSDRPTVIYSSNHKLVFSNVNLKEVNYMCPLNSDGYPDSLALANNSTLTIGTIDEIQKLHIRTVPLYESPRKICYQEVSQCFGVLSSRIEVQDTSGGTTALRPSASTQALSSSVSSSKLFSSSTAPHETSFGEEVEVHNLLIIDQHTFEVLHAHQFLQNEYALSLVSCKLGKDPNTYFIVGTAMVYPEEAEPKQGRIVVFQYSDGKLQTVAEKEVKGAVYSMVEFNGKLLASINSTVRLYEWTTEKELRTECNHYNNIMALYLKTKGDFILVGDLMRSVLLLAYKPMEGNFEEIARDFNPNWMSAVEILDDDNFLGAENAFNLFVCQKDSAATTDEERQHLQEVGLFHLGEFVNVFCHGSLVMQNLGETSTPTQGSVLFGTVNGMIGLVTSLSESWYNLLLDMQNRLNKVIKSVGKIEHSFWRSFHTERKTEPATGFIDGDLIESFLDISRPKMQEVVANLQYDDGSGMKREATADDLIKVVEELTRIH
Description: Western-blot assay, substrate protein degradation in hPBMCs: IKZF2. To be noted: for IKZF2 substrate protein remaining %: compounds at 50 nM and 500 nM, 24 hours; for substrate protein remaining % IKZF2: 24 hours of compound treatment, 50 nM and 500 nM.

For the next test, the target named is T4, IKZF3 (Homo sapiens, UniProt Q96SW2+Q9UKT9).
T4 construct: effects of the compounds of the present disclosure on the expression of target proteins in cells; endogenous in cells; host or cells: human PBMCs (hPBMCs)
T4 sequence (Q9UKT9 whole entry): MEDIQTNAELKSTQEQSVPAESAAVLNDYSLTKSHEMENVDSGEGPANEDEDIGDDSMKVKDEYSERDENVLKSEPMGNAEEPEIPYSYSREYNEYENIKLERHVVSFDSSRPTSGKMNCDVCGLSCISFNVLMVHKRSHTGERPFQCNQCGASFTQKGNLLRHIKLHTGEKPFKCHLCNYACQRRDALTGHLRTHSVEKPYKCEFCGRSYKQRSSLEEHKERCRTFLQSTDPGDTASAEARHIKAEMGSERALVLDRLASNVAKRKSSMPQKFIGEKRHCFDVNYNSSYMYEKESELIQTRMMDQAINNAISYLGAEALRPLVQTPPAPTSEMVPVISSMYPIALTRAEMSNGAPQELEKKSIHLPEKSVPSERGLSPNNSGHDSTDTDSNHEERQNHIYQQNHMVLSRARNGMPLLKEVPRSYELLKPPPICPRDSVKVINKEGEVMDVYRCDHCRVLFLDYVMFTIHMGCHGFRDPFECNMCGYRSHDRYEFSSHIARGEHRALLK
T4 sequence (Q96SW2 whole entry): as the sequence (Q96SW2 whole entry) above
T4 sequence (Q16531 whole entry partner): as the sequence (Q16531 whole entry partner) above
The test is described as follows: Western-blot assay, substrate protein degradation in hPBMCs: IKZF3. To be noted: for IKZF3 substrate protein remaining %: compounds at 50 nM and 500 nM, 24 hours; for substrate protein remaining % IKZF3: 24 hours of compound treatment, 50 nM and 500 nM.

A further test addresses T5, CK1α (Homo sapiens, UniProt P48729+Q96SW2).
T5 construct: effects of the compounds of the present disclosure on the expression of target proteins in cells; endogenous in cells; host or cells: human PBMCs (hPBMCs)
Description: Western-blot assay, substrate protein degradation in hPBMCs: CK1α. The following applies: for CK1α substrate protein remaining %: compounds at 50 nM and 500 nM, 24 hours; for substrate protein remaining % CK1α: 24 hours of compound treatment, 50 nM and 500 nM.

The target of the next test is T6, GSPT1 (Homo sapiens, UniProt P15170+Q96SW2).
T6 construct: effects of the compounds of the present disclosure on the expression of target proteins in cells; endogenous in cells; host or cells: human PBMCs (hPBMCs)
T6 sequence (P15170 whole entry): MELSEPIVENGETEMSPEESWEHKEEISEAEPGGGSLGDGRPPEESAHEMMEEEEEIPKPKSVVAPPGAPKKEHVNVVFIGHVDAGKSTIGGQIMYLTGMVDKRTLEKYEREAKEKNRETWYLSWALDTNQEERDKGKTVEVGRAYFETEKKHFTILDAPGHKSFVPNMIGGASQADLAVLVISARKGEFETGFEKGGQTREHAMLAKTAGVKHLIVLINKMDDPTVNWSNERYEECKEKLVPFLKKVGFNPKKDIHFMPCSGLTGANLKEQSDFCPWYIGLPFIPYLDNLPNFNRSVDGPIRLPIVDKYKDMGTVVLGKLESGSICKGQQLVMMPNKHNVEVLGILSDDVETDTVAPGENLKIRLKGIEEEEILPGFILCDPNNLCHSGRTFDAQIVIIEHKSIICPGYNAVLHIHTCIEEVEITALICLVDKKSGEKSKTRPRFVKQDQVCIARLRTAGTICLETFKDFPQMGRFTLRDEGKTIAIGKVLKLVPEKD
T6 sequence (Q96SW2 whole entry): as the sequence (Q96SW2 whole entry) above
T6 sequence (Q16531 whole entry partner): as the sequence (Q16531 whole entry partner) above
The test is described as follows: Western-blot assay, substrate protein degradation in hPBMCs: GSPT1. The following applies: for GSPT1 substrate protein remaining %: compounds at 50 nM and 500 nM, 24 hours; for substrate protein remaining % GSPT1: 24 hours of compound treatment, 50 nM and 500 nM.

T2 sequence (Q13422 whole entry): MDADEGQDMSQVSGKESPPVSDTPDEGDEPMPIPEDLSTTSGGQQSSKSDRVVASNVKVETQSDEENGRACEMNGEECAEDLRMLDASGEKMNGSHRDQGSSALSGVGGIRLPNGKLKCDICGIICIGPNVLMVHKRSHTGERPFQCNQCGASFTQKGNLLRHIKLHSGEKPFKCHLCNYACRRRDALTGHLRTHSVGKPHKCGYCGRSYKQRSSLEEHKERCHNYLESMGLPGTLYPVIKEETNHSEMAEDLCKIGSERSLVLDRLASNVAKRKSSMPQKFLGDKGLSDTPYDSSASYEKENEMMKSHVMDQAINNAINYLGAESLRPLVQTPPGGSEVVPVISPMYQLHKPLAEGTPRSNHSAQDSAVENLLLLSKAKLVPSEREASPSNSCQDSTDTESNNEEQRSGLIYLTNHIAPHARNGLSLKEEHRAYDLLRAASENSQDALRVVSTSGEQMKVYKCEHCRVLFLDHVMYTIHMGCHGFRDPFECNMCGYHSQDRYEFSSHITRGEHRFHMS
T2 sequence (Q96SW2 whole entry): as the sequence (Q96SW2 whole entry) above
T2 sequence (Q16531 whole entry partner): as the sequence (Q16531 whole entry partner) above
T5 sequence (P48729 whole entry): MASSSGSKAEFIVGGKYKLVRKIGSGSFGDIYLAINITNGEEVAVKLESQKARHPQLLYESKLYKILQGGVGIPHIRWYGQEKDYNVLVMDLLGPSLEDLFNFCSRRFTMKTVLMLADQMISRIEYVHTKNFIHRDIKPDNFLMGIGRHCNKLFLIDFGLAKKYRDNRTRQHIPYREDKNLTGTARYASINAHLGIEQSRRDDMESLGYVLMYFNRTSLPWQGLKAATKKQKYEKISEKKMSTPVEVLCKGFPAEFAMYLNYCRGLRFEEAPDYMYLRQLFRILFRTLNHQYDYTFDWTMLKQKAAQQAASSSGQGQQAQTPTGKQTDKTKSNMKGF
T5 sequence (Q96SW2 whole entry): as the sequence (Q96SW2 whole entry) above
T5 sequence (Q16531 whole entry partner): as the sequence (Q16531 whole entry partner) above

On to `O=C1CCN(N2C(=O)c3ccc(CN4CCN(C(c5ccc(F)cc5)c5ccc(F)cc5)CC4)cc3C2=O)C(=O)N1` [GT-05268, 5-((4-(bis(4-fluorophenyl)methyl)piperazin-1-yl)methyl)-2-(2,4-dioxotetrahydropyrimidin-1(2H)-yl)isoindoline-1,3-dione], for which the “WEE1 substrate protein remaining %” value on WEE1 is “B ("B" is defined as 80%< substrate protein remaining %≤ 100%)”. The “IKZF1 substrate protein remaining %” value on IKZF1 is recorded as “B ("B" is defined as 80%< substrate protein remaining %≤ 100%)”. Besides, the “IKZF2 substrate protein remaining %” value on IKZF2 is given as “B ("B" is defined as 80%< substrate protein remaining %≤ 100%)”. For the same compound, the “IKZF3 substrate protein remaining %” value at IKZF3 was “A ("A" is defined as 0% ≤ substrate protein remaining % ≤ 80%)”. For the same compound, at CK1α, the “CK1α substrate protein remaining %” value is listed as “A ("A" is defined as 0% ≤ substrate protein remaining % ≤ 80%)”. Also, the “GSPT1 substrate protein remaining %” value at GSPT1 was “A ("A" is defined as 0% ≤ substrate protein remaining % ≤ 80%)”.

On to `O=C1CCN(N2C(=O)c3ccc(CN4CCC(c5ccc(Br)cc5)CC4)cc3C2=O)C(=O)N1` [GT-06805, 5-((4-(4-bromophenyl)piperidin-1-yl)methyl)-2-(2,4-dioxotetrahydropyrimidin-1(2H)-yl)isoindoline-1,3-dione], for which the “WEE1 substrate protein remaining %” value on WEE1 is “B ("B" is defined as 80%< substrate protein remaining %≤ 100%)”. Further, the “IKZF1 substrate protein remaining %” value at IKZF1 is “B ("B" is defined as 80%< substrate protein remaining %≤ 100%)”. Moreover, at IKZF2, the “IKZF2 substrate protein remaining %” value is listed as “B ("B" is defined as 80%< substrate protein remaining %≤ 100%)”. Moreover, the “IKZF3 substrate protein remaining %” value on IKZF3 is listed as “B ("B" is defined as 80%< substrate protein remaining %≤ 100%)”. The “CK1α substrate protein remaining %” value on CK1α was “A ("A" is defined as 0% ≤ substrate protein remaining % ≤ 80%)”. In addition, the “GSPT1 substrate protein remaining %” value at GSPT1 was “B ("B" is defined as 80%< substrate protein remaining %≤ 100%)”.

Turning to `O=C1CCN(N2C(=O)c3ccc(CN4CC=C(c5ccnc6cc(F)ccc56)CC4)cc3C2=O)C(=O)N1` [GT-05261, 2-(2,4-dioxotetrahydropyrimidin-1(2H)-yl)-5-((4-(7-fluoroquinolin-4-yl)-3,6-dihydropyridin-1(2H)-yl)methyl)isoindoline-1,3-dione], the “WEE1 substrate protein remaining %” value on WEE1 is “B ("B" is defined as 80%< substrate protein remaining %≤ 100%)”. The “IKZF1 substrate protein remaining %” value on IKZF1 is on record as “B ("B" is defined as 80%< substrate protein remaining %≤ 100%)”. Moreover, the “IKZF2 substrate protein remaining %” value at IKZF2 is on record as “A ("A" is defined as 0% ≤ substrate protein remaining % ≤ 80%)”. Also, on IKZF3, the “IKZF3 substrate protein remaining %” value was “B ("B" is defined as 80%< substrate protein remaining %≤ 100%)”. For the same compound, the “CK1α substrate protein remaining %” value on CK1α is recorded as “B ("B" is defined as 80%< substrate protein remaining %≤ 100%)”. Also, at GSPT1, the “GSPT1 substrate protein remaining %” value is “B ("B" is defined as 80%< substrate protein remaining %≤ 100%)”.

In the case of `O=C1CCN(N2Cc3cc(CN4CCC(c5cccc6cnccc56)CC4)ccc3C2=O)C(=O)N1` [GT-07644, 1-(5-((4-(isoquinolin-5-yl)piperidin-1-yl)methyl)-1-oxoisoindolin-2-yl)dihydropyrimidine-2,4(1H,3H)-dione], the “substrate protein remaining % WEE1” value on WEE1 is recorded as “B (80%< substrate protein remaining %≤ 100%)”. On IKZF1, the “substrate protein remaining % IKZF1” value was “B (80%< substrate protein remaining %≤ 100%)”. For the same compound, the “substrate protein remaining % IKZF2” value on IKZF2 is given as “B (80%< substrate protein remaining %≤ 100%)”. The “substrate protein remaining % IKZF3” value at IKZF3 was “B (80%< substrate protein remaining %≤ 100%)”. Also, at CK1α, the “substrate protein remaining % CK1α” value is on record as “B (80%< substrate protein remaining %≤ 100%)”. At GSPT1, the “substrate protein remaining % GSPT1” value is recorded as “A (0% ≤ substrate protein remaining % ≤ 80%)”.

Take `O=C1CCN(N2C(=O)c3ccc(CN4CCN(c5ccc(F)cn5)CC4)cc3C2=O)C(=O)N1` [GT-06965, 2-(2,4-dioxotetrahydropyrimidin-1(2H)-yl)-5-((4-(5-fluoropyridin-2-yl)piperazin-1-yl)methyl)isoindoline-1,3-dione]: the “WEE1 substrate protein remaining %” value at WEE1 is on record as “B ("B" is defined as 80%< substrate protein remaining %≤ 100%)”. On IKZF1, the “IKZF1 substrate protein remaining %” value is “B ("B" is defined as 80%< substrate protein remaining %≤ 100%)”. The “IKZF2 substrate protein remaining %” value on IKZF2 is reported as “A ("A" is defined as 0% ≤ substrate protein remaining % ≤ 80%)”. On IKZF3, the “IKZF3 substrate protein remaining %” value is reported as “B ("B" is defined as 80%< substrate protein remaining %≤ 100%)”. Besides, the “CK1α substrate protein remaining %” value at CK1α is reported as “B ("B" is defined as 80%< substrate protein remaining %≤ 100%)”. Further, the “GSPT1 substrate protein remaining %” value at GSPT1 was “B ("B" is defined as 80%< substrate protein remaining %≤ 100%)”.

Regarding `O=C1CCN(N2Cc3cc(CN4CCC(c5ccnc6cc(F)ccc56)CC4)ccc3C2=O)C(=O)N1` [GT-07645, 1-(5-((4-(7-fluoroquinolin-4-yl)piperidin-1-yl)methyl)-1-oxoisoindolin-2-yl)dihydropyrimidine-2,4(1H,3H)-dione], the “substrate protein remaining % WEE1” value at WEE1 is listed as “B (80%< substrate protein remaining %≤ 100%)”. At IKZF1, the “substrate protein remaining % IKZF1” value was “A (0% ≤ substrate protein remaining % ≤ 80%)”. In addition, the “substrate protein remaining % IKZF2” value at IKZF2 was “B (80%< substrate protein remaining %≤ 100%)”. Also, the “substrate protein remaining % IKZF3” value at IKZF3 was “B (80%< substrate protein remaining %≤ 100%)”. Moreover, the “substrate protein remaining % CK1α” value on CK1α is “B (80%< substrate protein remaining %≤ 100%)”. In addition, at GSPT1, the “substrate protein remaining % GSPT1” value was “A (0% ≤ substrate protein remaining % ≤ 80%)”.

Regarding `O=C1CCN(N2Cc3cc(CN4CCN(c5c(F)cccc5F)CC4)ccc3C2=O)C(=O)N1` [GT-06780, 1-(5-((4-(2,6-difluorophenyl)piperazin-1-yl)methyl)-1-oxoisoindolin-2-yl)dihydropyrimidine-2,4(1H,3H)-dione], the “WEE1 substrate protein remaining %” value at WEE1 was “B ("B" is defined as 80%< substrate protein remaining %≤ 100%)”. Besides, the “IKZF1 substrate protein remaining %” value at IKZF1 is “B ("B" is defined as 80%< substrate protein remaining %≤ 100%)”. Moreover, the “IKZF2 substrate protein remaining %” value on IKZF2 is reported as “B ("B" is defined as 80%< substrate protein remaining %≤ 100%)”. Besides, the “IKZF3 substrate protein remaining %” value on IKZF3 was “B ("B" is defined as 80%< substrate protein remaining %≤ 100%)”. The “CK1α substrate protein remaining %” value on CK1α was “A ("A" is defined as 0% ≤ substrate protein remaining % ≤ 80%)”. Moreover, the “GSPT1 substrate protein remaining %” value at GSPT1 is “B ("B" is defined as 80%< substrate protein remaining %≤ 100%)”.

Turning to `O=C1CCN(N2Cc3cc(CN4CCC(=C5CCOc6cc(F)ccc65)CC4)ccc3C2=O)C(=O)N1` [GT-07588, 1-(5-((4-(7-fluorochroman-4-ylidene)piperidin-1-yl)methyl)-1-oxoisoindolin-2-yl)dihydropyrimidine-2,4(1H,3H)-dione], the “substrate protein remaining % WEE1” value at WEE1 was “B (80%< substrate protein remaining %≤ 100%)”. The “substrate protein remaining % IKZF1” value on IKZF1 is given as “B (80%< substrate protein remaining %≤ 100%)”. For the same compound, at IKZF2, the “substrate protein remaining % IKZF2” value is given as “B (80%< substrate protein remaining %≤ 100%)”. Further, the “substrate protein remaining % IKZF3” value at IKZF3 is “B (80%< substrate protein remaining %≤ 100%)”. In addition, the “substrate protein remaining % CK1α” value on CK1α was “B (80%< substrate protein remaining %≤ 100%)”. The “substrate protein remaining % GSPT1” value at GSPT1 was “A (0% ≤ substrate protein remaining % ≤ 80%)”.

These data come from patent EP4722207A1, “OXOISOINDOLINYL-SUBSTITUTED TETRAHYDROPYRIMIDINEDIONE DERIVATIVE AND USE THEREOF” (Gluetacs Therapeutics (Shanghai) Co., Ltd., priority 2023, dated 2024).
